Consider eight compounds from PubChem BioAssay AID1919009 (Molecular Pharmacology Branch, DTP, NCI, 2023).

The term IC50 denotes the concentration needed to halve the response being measured. A word on the viability, T/C: it is the ratio of treated to control.

Several values for one entry are separate records, joined by “and”; a condition that tells them apart may be missing. Equal values may be shown once.

The test system of the assay is K24384-001-R-PDC complex spheroid growth. The experiment in a line: Anticancer human tumor K24384-001-R-PDC patient-derived pancreatic adenocarcinoma cell line growth inhibition [AhR]. Particulars: for viability, T/C: stronger effect = lower value. The procedure, abridged: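 Spheroids combined tumor cells with HUVEC endothelial cells and human MSCs as stroma. AhR antagonists were paired with standard or investigational drugs, each dosed in half-log steps down from near clinical Cmax, or from 10 microM where Cmax was unknown.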

[1] abbreviates: curve of first compound, second compound 0.1 µM.
Where [2] appears, read: curve of first compound, second compound 0.316 µM.
Where [3] appears, read: curve of first compound, second compound 1 µM.
Where [4] appears, read: curve of first compound, second compound 3.16 µM.
Setting [5] is: curve of first compound, second compound 10 µM.
The mark [6] stands for this setting: second compound 0.1 µM, first compound 0.0316 µM.
[7] abbreviates: second compound 0.1 µM, first compound 0.1 µM.
The mark [8] stands for this setting: second compound 0.1 µM, first compound 0.316 µM.
Setting [9] is: second compound 0.1 µM, first compound 1 µM.
The mark [10] stands for this setting: second compound 0.1 µM, first compound 3.16 µM.
The mark [11] stands for this setting: second compound 0.1 µM, first compound 10 µM.
Where [12] appears, read: second compound 0.316 µM, first compound 0.0316 µM.
Where [13] appears, read: second compound 0.316 µM, first compound 0.1 µM.
The mark [14] stands for this setting: second compound 0.316 µM, first compound 0.316 µM.
Where [15] appears, read: second compound 0.316 µM, first compound 1 µM.
Where [16] appears, read: second compound 0.316 µM, first compound 3.16 µM.
Setting [17] is: second compound 0.316 µM, first compound 10 µM.
[18] abbreviates: second compound 1 µM, first compound 0.0316 µM.
Where [19] appears, read: second compound 1 µM, first compound 0.1 µM.
The mark [20] stands for this setting: second compound 1 µM, first compound 0.316 µM.
Where [21] appears, read: second compound 1 µM, first compound 1 µM.
The mark [22] stands for this setting: second compound 1 µM, first compound 3.16 µM.
Where [23] appears, read: second compound 1 µM, first compound 10 µM.
Where [24] appears, read: second compound 3.16 µM, first compound 0.0316 µM.
The mark [25] stands for this setting: second compound 3.16 µM, first compound 0.1 µM.
[26] abbreviates: second compound 3.16 µM, first compound 0.316 µM.
[27] abbreviates: second compound 3.16 µM, first compound 1 µM.
The mark [28] stands for this setting: second compound 3.16 µM, first compound 3.16 µM.
The mark [29] stands for this setting: second compound 3.16 µM, first compound 10 µM.
[30] abbreviates: second compound 10 µM, first compound 0.0316 µM.
The mark [31] stands for this setting: second compound 10 µM, first compound 0.1 µM.
[32] abbreviates: second compound 10 µM, first compound 0.316 µM.
The mark [33] stands for this setting: second compound 10 µM, first compound 1 µM.
Setting [34] is: second compound 10 µM, first compound 3.16 µM.
Where [35] appears, read: second compound 10 µM, first compound 10 µM.
The mark [36] stands for this setting: second compound 0.1 µM, first compound 0.00316 µM.
Where [37] appears, read: second compound 0.1 µM, first compound 0.01 µM.
The mark [38] stands for this setting: second compound 0.316 µM, first compound 0.00316 µM.
[39] abbreviates: second compound 0.316 µM, first compound 0.01 µM.
[40] abbreviates: second compound 1 µM, first compound 0.00316 µM.
[41] abbreviates: second compound 1 µM, first compound 0.01 µM.
Where [42] appears, read: second compound 3.16 µM, first compound 0.00316 µM.
[43] abbreviates: second compound 3.16 µM, first compound 0.01 µM.
Setting [44] is: second compound 10 µM, first compound 0.00316 µM.
[45] abbreviates: second compound 10 µM, first compound 0.01 µM.
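Throughout, for viability, T/C: percent of DMSO vehicle-treated spheroid viability set as 100%.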

As for `COc1cc(Nc2ncc3c(n2)-c2ccc(Cl)cc2C(c2c(F)cccc2OC)=NC3)ccc1C(=O)O` + Cc1ccccc1N=Nc1ccc(NC(=O)c2ccnn2C)c(C)c1, the half-maximal inhibitory concentration (IC50) is, setting by setting: under setting [1], more than 10 µM; under setting [2], more than 10 µM; under setting [3], more than 10 µM; under setting [4], 3.16 µM; under setting [5], more than 10 µM. Moreover, the viability, T/C under setting [6] is 87.8%; the viability, T/C under setting [7] was 71.2%; the viability, T/C under setting [8] is 76%; the viability, T/C under setting [9] is 48.9%; the viability, T/C under setting [10] was 49.6%; the viability, T/C under setting [11] was 51.5%. For the same compound, the viability, T/C was 79.8% under setting [12]; 68.1% under setting [13]; 68.7% under setting [14]; 60.6% under setting [15]; 52.6% under setting [16]; 54.1% under setting [17]. Besides, the viability, T/C reads like this: under setting [18], 79.5%; under setting [19], 69.3%; under setting [20], 60.6%; under setting [21], 48.7%; under setting [22], 52.6%; under setting [23], 60.1%. Besides, the viability, T/C is 64.7% under setting [24]; 64.5% under setting [25]; 69.2% under setting [26]; 49.2% under setting [27]; 54.9% under setting [28]; 57.3% under setting [29]. For the same compound, the viability, T/C by setting is: under setting [30], 90.6%; under setting [31], 84.8%; under setting [32], 85.5%; under setting [33], 74.2%; under setting [34], 75.4%; under setting [35], 70.3%.

For `CC(C)c1c(-c2ccccc2)nc2c(C#N)c[nH]n2c1=O`, the viability, T/C runs as follows: (compound 0.0316 µM) 108% and 110% and 104%; (compound 0.1 µM) 95% and 105% (2×); (compound 0.316 µM) 98.1% and 105% and 104%; (compound 1 µM) 93.7% and 93.4% and 98.7%; (compound 3.16 µM) 91.1% and 103% (2×); (compound 10 µM) 91.9% and 98.8% and 81%. Further, the concentration for half-maximal inhibition (IC50) (curve of compound) is more than 10 µM.

Take `Nc1ncn(C2CC(O)C(CO)O2)c(=O)n1` (stereo not drawn): the viability, T/C is, setting by setting: (compound 0.00316 µM) 111% and 99.4% and 104%; (compound 0.01 µM) 94.1% and 108% and 112%; (compound 0.0316 µM) 108% and 95.7% and 101%; (compound 0.1 µM) 95.2% and 101% and 82.9%; (compound 0.316 µM) 87.2% and 88.8% and 84.9%; (compound 1 µM) 79.4% and 79.5% and 76.8%. Besides, the half-maximal inhibitory concentration (IC50) (curve of compound) was more than 1 µM.

As to `Nc1ccn(C2OC(CO)C(O)C2(F)F)c(=O)n1` (stereo not drawn), the viability, T/C was 75.8% and 84.6% and 71% (compound 0.0316 µM); 67.7% and 76.7% and 59.5% (compound 0.1 µM); 50.6% and 52.6% and 41.6% (compound 0.316 µM); 42.8% and 39.7% and 32.8% (compound 1 µM); 37.3% and 40.7% and 22.7% (compound 3.16 µM); 28.5% and 31.3% and 20.2% (compound 10 µM). Under “curve of compound”, the IC50 is 0.458 µM and 0.419 µM and 0.191 µM.

For the compound `CC1COCCN1c1cc(-c2ccnn2C)c2ccnc(-c3ccn[nH]3)c2n1` (stereo not drawn) + Cc1ccccc1N=Nc1ccc(NC(=O)c2ccnn2C)c(C)c1, the IC50 under setting [1] was found to be 0.103 µM; the IC50 under setting [2] amounted to 0.105 µM; the IC50 under setting [3] worked out at 0.0948 µM; the IC50 under setting [4] is 0.0991 µM; the IC50 under setting [5] was 0.168 µM. Further, the viability, T/C by setting is: under setting [36], 101%; under setting [37], 107%; under setting [6], 82.2%; under setting [7], 52.3%; under setting [8], 29.6%; under setting [9], 28.2%. Besides, the viability, T/C is 114% under setting [38]; 120% under setting [39]; 80.5% under setting [12]; 54.2% under setting [13]; 32.5% under setting [14]; 26.7% under setting [15]. The viability, T/C by setting is: under setting [40], 103%; under setting [41], 99.5%; under setting [18], 102%; under setting [19], 47.5%; under setting [20], 29.1%; under setting [21], 28.6%. Moreover, the viability, T/C under setting [42] is 101%; the viability, T/C under setting [43] was 92.1%; the viability, T/C under setting [24] was 82.1%; the viability, T/C under setting [25] was 48.7%; the viability, T/C under setting [26] was 33.4%; the viability, T/C under setting [27] was 28.5%. Moreover, the viability, T/C under setting [44] was 129%; the viability, T/C under setting [45] was 128%; the viability, T/C under setting [30] is 108%; the viability, T/C under setting [31] was 57.1%; the viability, T/C under setting [32] was 39.7%; the viability, T/C under setting [33] is 42.4%.

`CC1COCCN1c1cc(-c2ccnn2C)c2ccnc(-c3ccn[nH]3)c2n1` (stereo not drawn) + CC(CO)NC(=O)c1cc(-c2ccc(Cl)cc2)nn(-c2cnn(C)c2)c1=O: the IC50 by setting is: under setting [1], 0.115 µM; under setting [2], 0.091 µM; under setting [3], 0.0947 µM; under setting [4], 0.0546 µM; under setting [5], 0.0525 µM. Moreover, the viability, T/C was 105% under setting [36]; 93.7% under setting [37]; 80.8% under setting [6]; 51.7% under setting [7]; 33% under setting [8]; 26.4% under setting [9]. Also, the viability, T/C under setting [38] was 111%; the viability, T/C under setting [39] is 118%; the viability, T/C under setting [12] was 75.5%; the viability, T/C under setting [13] is 50.9%; the viability, T/C under setting [14] was 32.3%; the viability, T/C under setting [15] was 24.3%. Besides, the viability, T/C runs as follows: under setting [40], 94%; under setting [41], 121%; under setting [18], 86.4%; under setting [19], 49%; under setting [20], 28%; under setting [21], 21.3%. In addition, the viability, T/C is 73.1% under setting [42]; 74.8% under setting [43]; 64.2% under setting [24]; 34.2% under setting [25]; 23.7% under setting [26]; 25.2% under setting [27]. Also, the viability, T/C under setting [44] was 85.8%; the viability, T/C under setting [45] was 79.2%; the viability, T/C under setting [30] was 60.1%; the viability, T/C under setting [31] is 37.7%; the viability, T/C under setting [32] is 27.2%; the viability, T/C under setting [33] was 28.4%.

With `CC(C)c1c(-c2ccccc2)nc2c(C#N)c[nH]n2c1=O` + Cc1cncc(-c2nc(NCCc3c[nH]c4ccccc34)c3ncn(C(C)C)c3n2)c1, the concentration for half-maximal inhibition (IC50) under setting [1] is more than 10 µM; the IC50 under setting [2] was more than 10 µM; the IC50 under setting [3] is more than 10 µM; the IC50 under setting [4] is more than 10 µM; the IC50 under setting [5] was less than 0.0316 µM. The viability, T/C is, setting by setting: under setting [6], 108%; under setting [7], 110%; under setting [8], 106%; under setting [9], 102%; under setting [10], 85.6%; under setting [11], 85.8%. For the same compound, the viability, T/C runs as follows: under setting [12], 104%; under setting [13], 101%; under setting [14], 115%; under setting [15], 95.7%; under setting [16], 87.5%; under setting [17], 77.3%. In addition, the viability, T/C reads like this: under setting [18], 108%; under setting [19], 110%; under setting [20], 94.5%; under setting [21], 95.1%; under setting [22], 99%; under setting [23], 69.1%. The viability, T/C is, setting by setting: under setting [24], 83.7%; under setting [25], 91.4%; under setting [26], 82.6%; under setting [27], 61.9%; under setting [28], 70.4%; under setting [29], 77.3%. Moreover, the viability, T/C is 7.78% under setting [30]; 6.78% under setting [31]; 7.75% under setting [32]; 8.55% under setting [33]; 7.71% under setting [34]; 10.2% under setting [35].

On to `O=C(C=Cc1cccc(S(=O)(=O)Nc2ccccc2)c1)NO`, for which the viability, T/C is, setting by setting: (compound 0.0316 µM) 104% and 118% and 108%; (compound 0.1 µM) 104% and 115% and 114%; (compound 0.316 µM) 96.2% and 116% and 99.6%; (compound 1 µM) 78.5% and 87.3% and 81.8%; (compound 3.16 µM) 34.4% and 35.4% and 29.5%; (compound 10 µM) 8.12% and 8.37% and 2.97%. Moreover, the IC50 (curve of compound) is 2.1 µM and 2.28 µM and 2 µM.
